Laboratory results from PMC8877233, “The Hydrophobicity and Antifungal Potentiation of Burkholdine Analogues” (Molecules, 2022).
Starred links: 1 amine or outer side, 2 acyl side, 3 side chain; linkers in the order of their positions; H or OH if unused. Positions of bridges follow the written chain, without caps; N, C: chain ends. Non-standard residues stand in square brackets, D forms with d. Residues, ends and D or L forms follow the SMILES beside them. X3 = CCCCCCCCCCC(=O)N[C@H](C(=O)NC[C@@H](CC(=O)[*:1])N[*:2])[C@@H](C)O; X2 = CCCCCCCCNC(=O)[C@H](O)[C@@H](O)C(=O)NC[C@@H](CC(=O)[*:1])N[*:2]

Key:
[1] = test system: S. cerevisiae (ATCC204504); type: cell-based; conditions: ATCC204504, 24 h
Protocol: Bacto yeast extract (0.63 g, 70161, Fluka, Barcelona, Spain), peptone (1.00 g, 26421, Mikuni, Japan), and glucose (1.00 g, 16806-25, Nacalai tesque, Japan) were added to H2O (50 mL) at room temperature and the mixture was heated to 60 °C. After 30 min, the mixture was sterilized by heating in an autoclave at 121 °C for 20 min.
DMSO (8 µL, 13406-55, Nacalai tesque, Japan) was added to YPD medium (750 µL). The test fungus culture solution (3 µL) was added to this solution (1.5 mL).
The inhibitor (each 1.0 mg; 3a–h, 4a–b, 5a–b, 6a–b, 7, 8) was dissolved in DMSO (40 µL).
The prepared test bacteria (50 µL) were placed in A1–A12 of a 96-well plate. Bk analogue (50 µL) was added to A1, pipetting was performed, and then 50 µL was extracted from A1 and placed in A2. This operation was repeated until A11, and 50 µL extracted from A11 was discarded. The well plate was closed and incubated at 30 °C. After 24 h, the MIC values were evaluated.

[2] = RP-HPLC retention time as measure of hydrophilicity/hydrophobicity; type: physicochemical; conditions: chromatographic, Cosmosil 5C18-AR-II 4.6 x 150 mm, linear gradient 30–70% MeCN/H2O (0.1% TFA) for 30 min, 1 mL/min, UV 220 nm
Protocol: […] In all cases, the retention times of the (S)-Dab-containing peptides were shorter than those of the (R)-Dab-containing peptides, which were similar to those bearing L-Orn. The retention times of the cyclic peptides were shorter for Tat > D-Ser > L-Thr > L-Ser, while peptides bearing the undecanoic acid moiety eluted […] than those bearing the decanoic acid by about 2 min.

S. cerevisiae [3] = assay: Potentiation assay with G418; type: cell-based; conditions: for potentiation of the effect of G418: S. cerevisiae, peptide dose 100 µg/mL, result in words
Protocol: (§1) Two antibiotics with different mechanisms of action can have a synergistic effect, together exerting an antifungal activity higher than the sum of their individual activities. Accordingly, the potentiation of the antifungal effect of G418 (Geneticin), an aminoglycosyl-type antibiotic that inhibits protein biosynthesis by binding to the ribosome 70S and 80S subunits, and zeocin (phleomucin D1), a glycopeptide antibiotic and DNA intercalator, by cyclic peptides (3a)–(8) was evaluated. Although the relatively high PSA and negative logP values of Bk analogues (3a)–(8) are not conductive to cell penetration, there was the possibility that their fatty side chains have an affinity for cell surfaces. […] The mechanism of action is not clear, but it is possible that the interaction of the cyclic peptides (3a)–(8) with the cell wall increases its susceptibility to penetration by G418.
(§2) The prepared test bacteria (50 µL) were placed in well A1–A12 of a 96-well plate. G418 (200 mg/mL, 108321-42-2, Nacalai tesque, Japan) in H2O, then medium […] was added to A1, pipetting was performed, and 50 µL was extracted from A1 and placed in A2. This operation was repeated until A11, and 50 µL extracted from A11 was discarded. After 30 min, Bk analogue (200 μg/mL) in medium […] was added to each solution (final concentration = 100 μg/mL). The well plate was closed and incubated at 30 °C. After 24 h, the MIC and potentiation values were evaluated.

S. cerevisiae [4] = assay: Potentiation assay with zeocin; type: cell-based; conditions: assays attempted three times
Protocol: as §1
as §2, with “After 24 h, the MIC and potentiation values were evaluated.” left out

Candida albicans = conditions: cited from earlier work
From the text: The burkholdines (Bks) are a family of 25-membered cyclic lipopeptides composed of eight amino acids arranged in a lactam ring bearing a lipophilic side chain, which were first isolated from the proteobacteria Burkholderia ambifaria 2.2N by Schmidt in 2010 [1, 2, 3, 4]. […] The mechanism of this activity is thought to entail the inhibition of fungal β-glucan synthase, as is the case for the candine anti ...

## CCCCCCCCCCC(=O)N[C@H](C(=O)NC[C@H]1CC(=O)N[C@H](CO)C(=O)N[C@H](Cc2ccc(O)cc2)C(=O)N[C@H](CC(N)=O)C(=O)NCC(=O)N[C@@H](CC(N)=O)C(=O)N[C@@H](CO)C(=O)N[C@@H](CC(N)=O)C(=O)N1)[C@@H](C)O [Compound 4b, Cyclo-[Undecanoic Acid-Thr-(R)-7-D-Ser-D-Tyr-D-Asn-Gly-Asn-Ser-Asn]] ([dS][dY][dN]GNSN; linker N-C via X3)
[1]
  MIC: >200 µg/mL
[2]
  tR: 10.7 min
S. cerevisiae [3]
  potentiation of the effect of G418: weak potentiating effects

## CCCCCCCCNC(=O)[C@H](O)[C@@H](O)C(=O)NC[C@H]1CC(=O)N[C@H](CO)C(=O)N[C@H](Cc2ccc(O)cc2)C(=O)N[C@H](CC(N)=O)C(=O)NCC(=O)N[C@@H](CC(N)=O)C(=O)N[C@@H](CO)C(=O)N[C@@H](CC(N)=O)C(=O)N1 [Compound 5b, Cyclo-[(2R,3R)-2,3-dihydroxy-4-(octylamino)-4-oxobutanoic Acid-(R)-7-D-Ser-D-Tyr-D-Asn-Gly-Asn-Ser-Asn]] ([dS][dY][dN]GNSN; linker N-C via X2)
[1]
  MIC: >200 µg/mL
[2]
  tR: 6.4 min
S. cerevisiae [3]
  potentiation of the effect of G418: weak potentiating effects

## CN[C@@H]1[C@@H](O)[C@@H](O[C@@H]2[C@@H](O)[C@H](O[C@H]3O[C@H]([C@@H](C)O)[C@@H](O)[C@H](O)[C@H]3N)[C@@H](N)C[C@H]2N)OC[C@]1(C)O [Compound G418, G418, reference compound]
S. cerevisiae [3]; Saccharomyces cerevisiae, 24 h, read-out: MIC of G418 alone
  MIC: 25000 µg/mL

## Cc1c(N)nc([C@H](CC(N)=O)NC[C@H](N)C(N)=O)nc1C(=O)N[C@H](C(=O)N[C@H](C)[C@@H](O)[C@H](C)C(=O)N[C@H](C(=O)NCCC1=N[C@@H](c2nc(C(=O)NCCCCN=C(N)N)cs2)CS1)[C@@H](C)O)[C@@H](O[C@@H]1O[C@@H](CO)[C@@H](O)[C@H](O)[C@@H]1O[C@H]1O[C@H](CO)[C@@H](O)[C@H](OC(N)=O)[C@@H]1O)c1cnc[nH]1 [zeocin]
S. cerevisiae [4]
  MIC of zeocin alone: 3130 µg/mL

## caspofungin
Candida albicans
  MIC90: 0.25 µg/mL

## micafungin
Candida albicans
  MIC90: 0.015 µg/mL
